Measured values as given in the supplement of paper PMC10307832.

What was measured:
Experiment in all cases: relative viability (nuclei count vs DMSO), 5 days (fraction); higher = more cells survive
Ibrutinib + Palbociclib = compound: C=CC(=O)N1CCC[C@@H](n2nc(-c3ccc(Oc4ccccc4)cc3)c3c(N)ncnc32)C1 [Ibrutinib] + CC(=O)c1c(C)c2cnc(Nc3ccc(N4CCNCC4)cn3)nc2n(C2CCCC2)c1=O [Palbociclib] (partner 0.5 µM)
Method in brief: (§1)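 For relative viability, nuclei counts in treated wells were divided by those in vehicle wells. Lung cancer cell lines had been pin-tool dosed in 1536-well plates the day after seeding and cultured for 5 days, then fixed and stained in one step (final 0.05% Triton X-100, 1% formaldehyde, 1 ug/ml Hoechst) and imaged at 4×. Doses were one drug alone or a fixed anchor-drug dose plus five library-drug doses (not always all listed) in √10 steps, and values are duplicate-plate medians.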

Ibrutinib + Bortezomib = compound: C=CC(=O)N1CCC[C@@H](n2nc(-c3ccc(Oc4ccccc4)cc3)c3c(N)ncnc32)C1 [Ibrutinib] + CC(C)C[C@H](NC(=O)[C@H](Cc1ccccc1)NC(=O)c1cnccn1)B(O)O [Bortezomib] (partner 0.002 µM)
Method in brief: as §1

BMX-IN-1 + Linsitinib = compound: C=CC(=O)Nc1cc(-n2c(=O)ccc3cnc4ccc(-c5ccc(NS(C)(=O)=O)cc5)cc4c32)ccc1C [BMX-IN-1] + C[C@]1(O)C[C@@H](c2nc(-c3ccc4ccc(-c5ccccc5)nc4c3)c3c(N)nccn32)C1 [Linsitinib] (partner 1 µM)
Method in brief: as §1

PAC-1 + OSI-027 = compound: C=CCc1cccc(/C=N/NC(=O)CN2CCN(Cc3ccccc3)CC2)c1O [PAC-1] + COc1cccc2cc(-c3nc([C@H]4CC[C@H](C(=O)O)CC4)n4ncnc(N)c34)[nH]c12 [OSI-027] (partner 0.5 µM)
Method in brief: as §1

Cell Line | relative viability (Ibrutinib + Palbociclib; first compound 0.005 µM) | relative viability (Ibrutinib + Palbociclib; first compound 0.01581 µM) | relative viability (Ibrutinib + Palbociclib; first compound 0.05 µM) | relative viability (Ibrutinib + Palbociclib; first compound 0.1581 µM) | relative viability (Ibrutinib + Palbociclib; first compound 0.5 µM) | relative viability (Ibrutinib + Bortezomib; first compound 0.005 µM) | relative viability (Ibrutinib + Bortezomib; first compound 0.01581 µM) | relative viability (Ibrutinib + Bortezomib; first compound 0.05 µM) | relative viability (Ibrutinib + Bortezomib; first compound 0.1581 µM) | relative viability (Ibrutinib + Bortezomib; first compound 0.5 µM) | relative viability (BMX-IN-1 + Linsitinib; first compound 0.02 µM) | relative viability (BMX-IN-1 + Linsitinib; first compound 0.2 µM) | relative viability (BMX-IN-1 + Linsitinib; first compound 0.6325 µM) | relative viability (BMX-IN-1 + Linsitinib; first compound 2 µM) | relative viability (PAC-1 + OSI-027; first compound 0.02 µM) | relative viability (PAC-1 + OSI-027; first compound 0.06325 µM) | relative viability (PAC-1 + OSI-027; first compound 0.2 µM) | relative viability (PAC-1 + OSI-027; first compound 2 µM)
LCLC-97TM1 | 0.222 | 0.226 | 0.284 | 0.241 | 0.161 | 0.447 | 0.851 | 0.385 | 0.153 | 0.732 | 0.202 | 0.166 | 0.162 | 0.162 | 0.436 | 0.536 | 0.453 | 0.449
NCI-H2023 | 0.33 | 0.292 | 0.346 | 0.41 | 0.311 | 0.848 | 0.819 | 0.949 | 1.04 | 0.876 | 0.798 | 0.695 | 0.769 | 0.726 | 0.429 | 0.404 | 0.333 | 0.357
LC-2-ad | 0.588 | 0.513 | 0.505 | 0.542 | 0.505 | 1.18 | 1 | 1.06 | 0.965 | 1.02 | 1.03 | 0.861 | 0.823 | 0.852 | 0.877 | 1.05 | 0.78 | 0.64
NCI-H1975 | 0.546 | 0.446 | 0.502 | 0.457 | 0.17 | 0.417 | 0.328 | 0.274 | 0.383 | 0.226 | 1.22 | 1.09 | 1.06 | 0.855 | 0.826 | 0.62 | 0.704 | 0.842
NCI-H1793 | 0.251 | 0.247 | 0.238 | 0.31 | 0.243 | – | – | – | – | – | 1.33 | 0.987 | 1.24 | 0.844 | 0.249 | 0.277 | 0.311 | 0.247
Calu-6 | – | – | – | – | – | 0.992 | 0.959 | 0.934 | 1.11 | 0.932 | 1.05 | 0.984 | 0.998 | 1.03 | – | – | – | –
HCC-366 | 0.439 | 0.405 | 0.38 | 0.385 | 0.428 | 1.03 | 0.977 | 1.09 | 1.01 | 1.07 | 0.779 | 0.995 | 0.736 | 0.601 | 0.946 | 0.863 | 0.894 | 1.26
NCI-H2347 | 0.391 | 0.386 | 0.478 | 0.492 | 0.428 | – | 0.982 | 1.03 | – | 0.871 | 1.1 | 1.02 | 1.04 | 0.958 | 0.4 | 0.395 | 0.38 | 0.46
NCI-H2405 | 0.49 | 0.514 | – | – | 0.525 | 1.07 | 0.977 | 0.948 | 0.856 | 0.767 | 1.01 | 0.875 | 0.975 | 0.921 | 0.65 | 0.638 | 0.598 | 0.71
HCC-44 | 0.982 | 0.977 | 1.03 | 0.979 | 0.92 | 0.896 | 0.881 | 0.987 | 0.908 | 0.946 | 0.804 | 0.735 | 0.702 | 0.642 | 0.486 | 0.62 | 0.607 | 0.585
NCI-H1563 | – | – | – | – | – | 0.778 | 0.771 | 0.807 | 0.742 | 0.752 | 1.16 | 1.33 | 1.16 | 1.18 | 0.757 | 0.814 | 0.742 | 0.753
NCI-H1944 | 0.297 | 0.285 | 0.273 | 0.301 | 0.255 | – | – | – | – | – | 1.34 | 1.22 | 1.33 | 1.2 | 0.362 | 0.439 | 0.456 | 0.423
NCI-H358 | 0.121 | 0.169 | – | 0.189 | 0.11 | – | – | – | – | – | 1 | 0.732 | 0.816 | 0.806 | 0.7 | 0.632 | 0.693 | 0.631
IA-LM | – | – | – | – | – | 0.846 | 0.781 | 0.926 | 0.989 | 0.863 | 0.701 | 0.674 | 0.47 | 0.6 | – | – | – | –
NCI-H596 | – | – | – | – | – | 1.21 | 0.457 | – | 0.834 | 0.92 | 1.12 | 1.21 | 1.02 | 0.936 | 0.733 | 0.745 | 0.695 | 0.719
NCI-H1299 | – | – | – | – | – | 1.02 | 1 | 0.995 | 1.02 | 1.04 | 1.2 | 0.986 | 1.13 | 1.12 | – | – | – | –
NCI-H1648 | 0.279 | 0.27 | 0.259 | 0.297 | 0.252 | – | – | – | – | – | – | – | – | – | 0.239 | 0.264 | 0.27 | 0.317
NCI-H1703 | – | – | – | – | – | 0.374 | 0.308 | 0.332 | 0.409 | 0.231 | 0.945 | 0.666 | 0.712 | 0.746 | – | – | – | –
NCI-H2170 | 0.329 | 0.296 | 0.259 | 0.385 | 0.139 | – | – | – | – | – | – | – | – | – | 0.701 | 0.631 | 0.784 | 0.645
NCI-H2342 | 0.495 | 0.519 | 0.496 | 0.486 | 0.502 | – | – | – | – | – | – | – | – | – | 0.653 | 0.574 | 0.65 | 0.682
NCI-H1623 | – | – | – | – | – | – | – | – | – | – | – | – | – | – | 0.455 | 0.446 | 0.442 | 0.448
SW 900 | 0.572 | 0.437 | 0.552 | 0.511 | 0.479 | – | – | – | – | – | – | – | – | – | 0.69 | 0.828 | 0.572 | 0.496
ChaGo-K-1 | 0.94 | 0.886 | 0.953 | 0.869 | 0.901 | 0.906 | 1.04 | 0.927 | – | 0.959 | – | – | – | – | 0.623 | 0.617 | 0.57 | 0.635
NCI-H1395 | 0.55 | 0.672 | 0.648 | 0.623 | 0.612 | – | – | – | – | – | 0.975 | 1 | 1.11 | 1.08 | 0.66 | 0.603 | 0.667 | 0.54
